Assay results published in BindingDB's records for PubMed 28189086 (Texas Southern University, 2017).

target: Maltase-glucoamylase (Homo sapiens, UniProt O43451); test: Inhibition of Alpha-glucosidase (unknown origin)
Sequence (O43451 whole entry): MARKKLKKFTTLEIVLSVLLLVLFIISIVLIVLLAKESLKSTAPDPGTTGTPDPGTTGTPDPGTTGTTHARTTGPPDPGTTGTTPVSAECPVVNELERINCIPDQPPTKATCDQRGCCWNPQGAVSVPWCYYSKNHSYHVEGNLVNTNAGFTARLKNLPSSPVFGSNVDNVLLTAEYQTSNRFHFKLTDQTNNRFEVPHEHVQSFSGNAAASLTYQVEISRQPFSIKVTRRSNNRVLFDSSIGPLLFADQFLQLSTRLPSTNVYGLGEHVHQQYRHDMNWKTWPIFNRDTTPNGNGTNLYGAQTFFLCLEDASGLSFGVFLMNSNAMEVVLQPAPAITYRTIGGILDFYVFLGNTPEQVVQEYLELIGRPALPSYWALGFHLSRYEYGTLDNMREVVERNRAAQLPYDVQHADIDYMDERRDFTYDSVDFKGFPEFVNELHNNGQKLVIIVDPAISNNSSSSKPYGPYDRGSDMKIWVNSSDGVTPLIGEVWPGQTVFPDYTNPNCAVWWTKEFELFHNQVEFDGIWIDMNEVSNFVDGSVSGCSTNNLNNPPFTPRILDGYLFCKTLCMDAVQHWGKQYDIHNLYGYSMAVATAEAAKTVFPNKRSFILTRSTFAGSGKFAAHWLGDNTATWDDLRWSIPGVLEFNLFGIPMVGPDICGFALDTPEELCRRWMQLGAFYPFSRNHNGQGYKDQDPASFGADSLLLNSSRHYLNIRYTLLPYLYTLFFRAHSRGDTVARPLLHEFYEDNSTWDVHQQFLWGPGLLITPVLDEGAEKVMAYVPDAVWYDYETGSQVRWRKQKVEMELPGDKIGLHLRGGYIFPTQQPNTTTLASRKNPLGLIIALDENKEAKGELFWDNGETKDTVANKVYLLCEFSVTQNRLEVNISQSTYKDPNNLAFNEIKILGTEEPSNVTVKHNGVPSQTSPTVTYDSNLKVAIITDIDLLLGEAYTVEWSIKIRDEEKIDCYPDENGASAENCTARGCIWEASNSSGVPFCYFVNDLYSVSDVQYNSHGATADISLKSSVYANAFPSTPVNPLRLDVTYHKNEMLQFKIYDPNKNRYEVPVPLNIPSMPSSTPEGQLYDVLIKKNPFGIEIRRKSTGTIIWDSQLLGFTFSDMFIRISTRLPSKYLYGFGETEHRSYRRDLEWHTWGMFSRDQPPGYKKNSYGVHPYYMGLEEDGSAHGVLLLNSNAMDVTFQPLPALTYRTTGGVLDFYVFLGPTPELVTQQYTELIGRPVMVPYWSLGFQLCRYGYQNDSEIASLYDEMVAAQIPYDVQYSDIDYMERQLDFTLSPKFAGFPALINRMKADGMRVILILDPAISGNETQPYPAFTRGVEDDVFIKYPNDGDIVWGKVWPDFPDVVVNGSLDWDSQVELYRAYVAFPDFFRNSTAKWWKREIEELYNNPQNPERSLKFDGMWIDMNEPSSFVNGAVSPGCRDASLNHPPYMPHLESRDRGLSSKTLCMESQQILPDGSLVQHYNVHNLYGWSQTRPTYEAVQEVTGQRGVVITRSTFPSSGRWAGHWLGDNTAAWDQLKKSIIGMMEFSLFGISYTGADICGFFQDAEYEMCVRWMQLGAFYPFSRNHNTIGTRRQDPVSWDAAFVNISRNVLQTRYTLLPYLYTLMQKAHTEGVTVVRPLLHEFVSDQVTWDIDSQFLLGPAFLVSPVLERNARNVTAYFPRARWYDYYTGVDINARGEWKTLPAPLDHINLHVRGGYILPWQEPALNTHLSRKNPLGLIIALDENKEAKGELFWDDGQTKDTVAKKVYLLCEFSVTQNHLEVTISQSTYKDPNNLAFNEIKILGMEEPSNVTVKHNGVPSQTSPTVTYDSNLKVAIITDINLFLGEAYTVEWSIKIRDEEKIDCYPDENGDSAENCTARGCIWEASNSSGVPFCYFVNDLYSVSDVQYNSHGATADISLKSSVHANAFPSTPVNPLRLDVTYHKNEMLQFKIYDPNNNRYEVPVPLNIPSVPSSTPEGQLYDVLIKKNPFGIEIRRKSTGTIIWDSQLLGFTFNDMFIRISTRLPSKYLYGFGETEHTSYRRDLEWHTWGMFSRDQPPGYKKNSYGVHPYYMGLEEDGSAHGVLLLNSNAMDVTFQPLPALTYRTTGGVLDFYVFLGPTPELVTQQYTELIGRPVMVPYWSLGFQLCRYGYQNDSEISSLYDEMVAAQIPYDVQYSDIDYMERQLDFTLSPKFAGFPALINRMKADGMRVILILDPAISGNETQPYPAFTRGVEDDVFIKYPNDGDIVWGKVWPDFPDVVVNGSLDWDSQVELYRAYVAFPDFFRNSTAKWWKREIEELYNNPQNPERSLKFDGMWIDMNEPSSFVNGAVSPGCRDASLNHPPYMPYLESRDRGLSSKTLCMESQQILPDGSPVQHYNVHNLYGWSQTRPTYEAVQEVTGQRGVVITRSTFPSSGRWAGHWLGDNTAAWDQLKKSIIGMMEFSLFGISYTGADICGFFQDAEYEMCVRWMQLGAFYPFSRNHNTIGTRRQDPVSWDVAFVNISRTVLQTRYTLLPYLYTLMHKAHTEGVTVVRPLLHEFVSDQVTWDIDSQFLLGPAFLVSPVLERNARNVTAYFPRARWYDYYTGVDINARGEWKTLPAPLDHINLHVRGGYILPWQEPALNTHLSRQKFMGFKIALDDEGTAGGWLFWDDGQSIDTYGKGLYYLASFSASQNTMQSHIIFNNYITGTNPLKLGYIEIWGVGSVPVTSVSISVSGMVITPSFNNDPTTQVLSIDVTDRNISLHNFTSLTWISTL

| Compound | IC50 |
| --- | --- |
| COc1ccc2c(c1OC)O[C@H]1c3ccc(O)cc3OC[C@@H]21 | 174 µM |
| O=c1oc2cc(O)ccc2c2oc3cc(O)ccc3c12 [5,14-dihydroxy-8,17-dioxatetracyclo[8.7.0.0^{2,7}.0^{11,16}]heptadeca-1(10),2,4,6,11(16),12,14-heptaen-9-one] | 6 µM |
| COc1ccc2c(c1)OC[C@H]1c3ccc(OC)c(O)c3O[C@@H]21 | 128 µM |
